Data published in patent publication US6156700A, “3-(1,2-Benzisothiazol- and isoxazol-5-yl)-2,4(1H,3H)-pyrimidinedione or thione and 3-(1,2-benzisothiazol- and isoxazol-5-yl)-4(3H)-pyrimidinone or thione herbicidal agents” (American Cyanmid Company, priority 1998, dated 2000).
Where “and” joins values, the source holds several entries; their conditions need not be identical. Equal values may be shown once.

How the values were obtained:
Format in all cases: in vivo
[1] = tested on: IPOSS; assay: Preemergence herbicidal evaluation; design: scale not given here; details: 0.5000 kg/ha
[2] = tested on: ECHCG; assay: Preemergence herbicidal evaluation; design: scale not given here
[3] = tested on: SETVI; assay: Preemergence herbicidal evaluation; design: scale not given here
[4] = tested on: AMBEL; assay: Preemergence herbicidal evaluation; design: scale not given here
[5] = tested on: CASOB; assay: Preemergence herbicidal evaluation; design: scale not given here
[6] = tested on: CHEAL; assay: Preemergence herbicidal evaluation; design: scale not given here
[7] = tested on: GALAP; assay: Preemergence herbicidal evaluation; design: scale not given here
[8] = tested on: ABUTH; assay: Preemergence herbicidal evaluation; design: scale not given here
[9] = tested on: ZEAMX; assay: Preemergence herbicidal evaluation; design: scale not given here
[10] = tested on: GLXMAW; assay: Preemergence herbicidal evaluation; design: scale not given here
[11] = tested on: SETVI; assay: Postemergence herbicidal evaluation
[12] = tested on: IPOSS; assay: Postemergence herbicidal evaluation
[13] = tested on: GLXMAW; assay: Postemergence herbicidal evaluation

O=C1C2=C(CCCC2)C(=O)N1c1ccc2snc(-c3ccccc3)c2c1 [A]
herbicidal effect rating [1]: 2.0 | herbicidal effect rating ([2]; 0.0156-0.0160 kg/ha): 0.0 | herbicidal effect rating ([2]; 0.0313-0.0320 kg/ha): 0.0 | herbicidal effect rating ([2]; 0.0620-0.0630 kg/ha): 0.0 | herbicidal effect rating ([2]; 0.1250 kg/ha): 0.0 | herbicidal effect rating ([2]; 0.2500 kg/ha): 0.0 | herbicidal effect rating ([2]; 0.5000 kg/ha): 0.0 | herbicidal effect rating ([3]; 0.0156-0.0160 kg/ha): 0.0 | herbicidal effect rating ([3]; 0.0313-0.0320 kg/ha): 0.0 | herbicidal effect rating ([3]; 0.0620-0.0630 kg/ha): 0.0 | herbicidal effect rating ([3]; 0.1250 kg/ha): 2.5 | herbicidal effect rating ([3]; 0.2500 kg/ha): 2.0 | herbicidal effect rating ([3]; 0.5000 kg/ha): 3.0 | herbicidal effect rating ([4]; 0.0156-0.0160 kg/ha): 0.0 | herbicidal effect rating ([4]; 0.0620-0.0630 kg/ha): 2.0 | herbicidal effect rating ([4]; 0.1250 kg/ha): 3.5 | herbicidal effect rating ([4]; 0.2500 kg/ha): 6.0 | herbicidal effect rating ([4]; 0.5000 kg/ha): 5.0 | herbicidal effect rating ([5]; 0.0156-0.0160 kg/ha): 0.0 | herbicidal effect rating ([5]; 0.0313-0.0320 kg/ha): 0.0 | herbicidal effect rating ([5]; 0.0620-0.0630 kg/ha): 0.0 | herbicidal effect rating ([5]; 0.1250 kg/ha): 1.5 | herbicidal effect rating ([5]; 0.2500 kg/ha): 2.0 | herbicidal effect rating ([5]; 0.5000 kg/ha): 2.0 | herbicidal effect rating ([6]; 0.0156-0.0160 kg/ha): 2.0 | herbicidal effect rating ([6]; 0.0620-0.0630 kg/ha): 2.5 | herbicidal effect rating ([6]; 0.1250 kg/ha): 5.0 | herbicidal effect rating ([6]; 0.2500 kg/ha): 7.0 | herbicidal effect rating ([6]; 0.5000 kg/ha): 9.0 | herbicidal effect rating ([7]; 0.0313-0.0320 kg/ha): 5.5 | herbicidal effect rating ([7]; 0.0620-0.0630 kg/ha): 4.5 | herbicidal effect rating ([7]; 0.1250 kg/ha): 7.0 | herbicidal effect rating ([7]; 0.2500 kg/ha): 9.0 | herbicidal effect rating ([7]; 0.5000 kg/ha): 9.0 | herbicidal effect rating ([8]; 0.0156-0.0160 kg/ha): 0.0 | herbicidal effect rating ([8]; 0.0313-0.0320 kg/ha): 0.0 | herbicidal effect rating ([8]; 0.0620-0.0630 kg/ha): 0.0 | herbicidal effect rating ([8]; 0.1250 kg/ha): 5.0 | herbicidal effect rating ([8]; 0.2500 kg/ha): 6.0 | herbicidal effect rating ([8]; 0.5000 kg/ha): 7.0 | herbicidal effect rating ([9]; 0.0156-0.0160 kg/ha): 0.0 | herbicidal effect rating ([9]; 0.0313-0.0320 kg/ha): 0.0 | herbicidal effect rating ([9]; 0.0620-0.0630 kg/ha): 0.0 | herbicidal effect rating ([9]; 0.1250 kg/ha): 0.0 | herbicidal effect rating ([9]; 0.2500 kg/ha): 0.0 | herbicidal effect rating ([9]; 0.5000 kg/ha): 0.0 | herbicidal effect rating ([10]; 0.0313-0.0320 kg/ha): 0.0 | herbicidal effect rating ([10]; 0.0620-0.0630 kg/ha): 0.0 | herbicidal effect rating ([10]; 0.1250 kg/ha): 0.0 | herbicidal effect rating ([10]; 0.2500 kg/ha): 0.0 | herbicidal effect rating ([10]; 0.5000 kg/ha): 0.0 | herbicidal effect rating ([11]; 0.0157-0.0160 kg/ha): 1.0 and 1.2 | herbicidal effect rating ([11]; 0.0313-0.0320 kg/ha): 1.0 and 1.6 | herbicidal effect rating ([11]; 0.0625-0.0640 kg/ha): 2.1 | herbicidal effect rating ([11]; 0.1250 kg/ha): 3.0 | herbicidal effect rating ([11]; 0.2500 kg/ha): 2.7 | herbicidal effect rating ([11]; 0.5000 kg/ha): 2.0 | herbicidal effect rating ([12]; 0.0157-0.0160 kg/ha): 5.5 and 5.0 | herbicidal effect rating ([12]; 0.0313-0.0320 kg/ha): 9.0 and 6.8 | herbicidal effect rating ([12]; 0.0625-0.0640 kg/ha): 7.5 | herbicidal effect rating ([12]; 0.1250 kg/ha): 8.4 | herbicidal effect rating ([12]; 0.2500 kg/ha): 9.0 | herbicidal effect rating ([12]; 0.5000 kg/ha): 9.0 | herbicidal effect rating ([13]; 0.0157-0.0160 kg/ha): 4.0 | herbicidal effect rating ([13]; 0.0313-0.0320 kg/ha): 4.0 | herbicidal effect rating ([13]; 0.0625-0.0640 kg/ha): 4.6 | herbicidal effect rating ([13]; 0.1250 kg/ha): 4.6 | herbicidal effect rating ([13]; 0.2500 kg/ha): 4.6 | herbicidal effect rating ([13]; 0.5000 kg/ha): 4.5
